Active and inactive are the calls of the source. No cut-off for these calls is given here.

The species entered for one experiment is Homo sapiens. The experiment can be described thus: Binding affinity to MTSL-labeled USP7CD-CTP N1102C mutant (unknown origin) expressed in Escherichia coli BL21(DE3) assessed as complex formation of compound and CTP with switching loop region of USP7 at 200 uM by CPMG spectral analysis. The note with it: filed as activator.
Experiment [1] has as its system Ubiquitin carboxyl-terminal hydrolase 7 (Homo sapiens), Q93009 [D1080N]. The following applies: filed as activator, time 15.0 min.
For experiment [2], the target named is T1, Ubiquitin carboxyl-terminal hydrolase 7 (Homo sapiens, UniProt Q93009). The following applies: filed as activator, time 15.0 min.
Target sequence in this assay (Q93009 whole entry, looked up): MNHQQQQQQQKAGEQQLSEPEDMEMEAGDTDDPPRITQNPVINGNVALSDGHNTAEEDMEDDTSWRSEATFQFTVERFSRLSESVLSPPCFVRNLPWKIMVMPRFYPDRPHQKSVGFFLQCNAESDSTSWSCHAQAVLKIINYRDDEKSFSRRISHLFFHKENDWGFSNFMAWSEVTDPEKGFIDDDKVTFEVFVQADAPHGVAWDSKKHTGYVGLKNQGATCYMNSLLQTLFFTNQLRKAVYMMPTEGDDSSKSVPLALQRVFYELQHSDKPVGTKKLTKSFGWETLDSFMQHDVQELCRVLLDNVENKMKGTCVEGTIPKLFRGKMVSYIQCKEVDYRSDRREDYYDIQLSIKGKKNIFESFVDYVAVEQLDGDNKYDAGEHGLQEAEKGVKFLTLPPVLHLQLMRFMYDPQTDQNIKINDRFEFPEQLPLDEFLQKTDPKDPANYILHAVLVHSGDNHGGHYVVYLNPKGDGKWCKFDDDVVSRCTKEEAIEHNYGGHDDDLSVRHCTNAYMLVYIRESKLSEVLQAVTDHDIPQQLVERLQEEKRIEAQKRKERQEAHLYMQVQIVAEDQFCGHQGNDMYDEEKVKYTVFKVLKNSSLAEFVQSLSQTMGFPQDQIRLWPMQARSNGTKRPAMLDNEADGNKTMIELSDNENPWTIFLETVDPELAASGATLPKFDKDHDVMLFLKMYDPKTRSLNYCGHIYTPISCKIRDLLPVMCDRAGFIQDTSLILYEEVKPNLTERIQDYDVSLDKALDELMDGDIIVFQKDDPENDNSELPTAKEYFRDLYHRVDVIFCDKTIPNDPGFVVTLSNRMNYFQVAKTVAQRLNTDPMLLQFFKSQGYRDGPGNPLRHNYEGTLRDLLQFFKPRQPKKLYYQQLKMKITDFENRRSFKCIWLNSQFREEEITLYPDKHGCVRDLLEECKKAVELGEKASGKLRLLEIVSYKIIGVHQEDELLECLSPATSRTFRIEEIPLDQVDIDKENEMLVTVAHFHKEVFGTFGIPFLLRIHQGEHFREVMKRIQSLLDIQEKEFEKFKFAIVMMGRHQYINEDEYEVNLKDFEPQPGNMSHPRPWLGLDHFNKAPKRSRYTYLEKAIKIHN
The target in experiment [3] is T1, Ubiquitin carboxyl-terminal hydrolase 7. The following applies: filed as activator.
Target sequence in this assay (Q93009 whole entry, looked up): as above
The target is the same in experiment [4]. The experiment can be described thus: Activation of USP7 catalytic domain (208 to 560 residues) (unknown origin) expressed in Escherichia coli BL21(DE3) assessed as decrease in thermal stability of protein at 250 uM by SYPRO orange dye based fluorescence analysis. The following applies: filed as activator.
Target sequence in this assay (Q93009 whole entry, looked up): as above
The target is the same in experiment [5]. The experiment can be described thus: Activation of USP7 catalytic domain (208 to 560 residues) (unknown origin) expressed in Escherichia coli BL21(DE3) assessed as Ub-AMC hydrolysis preincubated for 15 mins followed by Ub-AMC addition and measured every 1 min by fluorescence based analysis.
Target sequence in this assay (Q93009 whole entry): as the sequence (Q93009 whole entry, looked up) above
Experiment [6] has the same target. The experiment can be described thus: Activation of USP7 catalytic domain (208 to 560 residues) (unknown origin) expressed in Escherichia coli BL21(DE3) assessed as upregulation of Kcat of enzyme using Ub-AMC as substrate at 200 uM preincubated for 15 mins followed by Ub-AMC addition and measured for 1 hr by fluorescence based analysis. The following applies: filed as activator, time 75.0 min.
Target sequence in this assay (Q93009 whole entry, looked up): as above

For experiment [7], the system named is Ubiquitin carboxyl-terminal hydrolase 7 (Homo sapiens), Q93009 [I766T]. The note with it: filed as activator, time 15.0 min.
Chain of Ubiquitin carboxyl-terminal hydrolase 7 (Homo sapiens), Q93009 [I766T] (Q93009 whole entry I766T): as the sequence (Q93009 whole entry, looked up) above, with I766T counted along it
Experiment [8] relates to Ubiquitin carboxyl-terminal hydrolase 7 (Homo sapiens), Q93009 [L757P]. The following applies: filed as activator, time 15.0 min.
Chain of Ubiquitin carboxyl-terminal hydrolase 7 (Homo sapiens), Q93009 [L757P] (Q93009 whole entry L757P): as the sequence (Q93009 whole entry, looked up) above, with L757P counted along it

Chain of Ubiquitin carboxyl-terminal hydrolase 7 (Homo sapiens), Q93009 [D1080N] (Q93009 whole entry D1080N): as the sequence (Q93009 whole entry, looked up) above, with D1080N counted along it

As to `CN[C@H]1CC[C@@H](c2ccc(Cl)c(Cl)c2)c2ccccc21`, in the experiment filed under Homo sapiens, the result was Active.
Take `COc1ccc(CCN2CCC(Nc3nc4ccccc4n3Cc3ccc(F)cc3)CC2)cc1` [ASTEMIZOLE]: the EC1.5 in [1] was 6.54 µM; in experiment [2] it was 2.19 µM; in experiment [3], 5.61 µM; in experiment [7] it was 1.27 µM; in experiment [8], 8.98 µM. In addition, the outcome (in experiment [4]; in experiment [6]; in the experiment filed under Homo sapiens) was Active. Besides, the concentration giving a half-maximal response (EC50) in experiment [5] amounted to 32.2 µM.

In general, EC50 refers to the midpoint of the concentration-response curve.

Source of the values: ChEMBL document CHEMBL6134808, “Sertraline and Astemizole Enhance the Deubiquitinase Activity of USP7 by Binding to Its Switching Loop Region” (J Med Chem, 2025).
